The NIST ThermoML archive (doi:10.1016/j.tca.2005.11.005)

Test: molar heat capacity at constant pressure; xn = mol fraction of the nth substance listed
Details: 101 kPa, Crystal, Small sample (50 mg) DSC

[Ce+4].[O-2].[O-2] [ceric oxide] + [O-2].[O-2].[U+4]
molar heat capacity at constant pressure [J/K/mol]
Details | 298 K | 300 K | 400 K | 500 K | 600 K | 700 K | 800 K
x2 = 0 | 62.6 | 62.7 | 68.8 | 73 | 76.5 | 78.6 | 79.3
x2 = 0.197 | 62.8 | 64 | 73.3 | 81.2 | 84.6 | 84.5 | 85.2
x2 = 0.491 | 64.2 | 64.8 | 76.8 | 85.9 | 89.2 | 89.6 | 88.3
x2 = 0.809 | 70.1 | 70.4 | 79.7 | 86 | 88.9 | 90.3 | 92

[O-2].[O-2].[U+4] [uranium dioxide] + [Ce+4].[O-2].[O-2]
x1 = 1
Details | molar heat capacity at constant pressure [J/K/mol]
298 K | 64
300 K | 64.1
400 K | 72.7
500 K | 77.5
600 K | 80.4
700 K | 82.6
800 K | 85.9
